Experimental findings from the SangsterLogP compilation are described below.

Experiment in the first data set: not given
Conditions: not given
With `CCN(CC)Cc1cccc(C(=O)Oc2c(C)cccc2C)c1`, the logP was found to be 2.99.

As for `Cc1cccc(C)c1OC(=O)c1ccc(CN2CCCC2)cc1`, the logP worked out at 3.2. As to `Cc1cccc(C)c1OC(=O)c1ccc(CN2CCCCC2)cc1`, the logP amounted to 3.5.

Turning to `Cc1cccc(C)c1OC(=O)c1cccc(CN2CCCC2)c1`, the logP came out at 3.18. `Cc1cccc(C)c1NC(=O)c1ccc(CN2CCOCC2)cc1` registered a logP of 1.76. Consider `Cc1cccc(C)c1OCc1ccccc1CN1CCOCC1`, for which the logP is 4.16.

On to `Cc1cccc(C)c1OC(=O)c1ccccc1CN1CCCC1`, for which the logP was 3.09.

The nature of another data set: method code SF-AS, from DOI: 10.1002/qsar.19880070104. Conditions: pH 7.4.
In turn, `Cc1cccc(C)c1NC(=O)OCc1ccc(CN2CCOCC2)cc1` showed a logD of 2.2. Turning to `Cc1cccc(C)c1OC(=O)NCc1cccc(CN2CCOCC2)c1`, the logD was 2.91. `Cc1cccc(C)c1NC(=O)OCc1ccccc1CN1CCOCC1` had a logD of 2.8. Regarding `Cc1cccc(C)c1OC(=O)OCc1cccc(CN2CCOCC2)c1`, the logD turned out to be 3.47. The same measure, in the same setting: next, `Cc1cccc(C)c1OC(=O)c1ccccc1CN1CCOCC1`: 3.48. Regarding `Cc1cccc(C)c1OC(=O)OCc1ccc(CN2CCOCC2)cc1`, the logD was determined as 3.34. In turn, `Cc1cccc(C)c1OC(=O)NCc1ccccc1CN1CCOCC1` came in with a logD of 3.54. In the case of `Cc1cccc(C)c1OCc1ccc(CN2CCOCC2)cc1`, the logD was determined as 3.76. Regarding `Cc1cccc(C)c1OCc1cccc(CN2CCOCC2)c1`, the logD amounted to 3.74.

In turn, `Cc1cccc(C)c1OC(=O)c1cccc(CN2CCOCC2)c1` registered a logD of 3.91. Take `Cc1cccc(C)c1OC(=O)NCc1ccc(CN2CCOCC2)cc1`: the logD amounted to 2.7.

With `Cc1cccc(C)c1OC(=O)c1ccc(CN2CCOCC2)cc1`, the logD was determined as 3.92. The same measure, in the same setting: next, `Cc1cccc(C)c1NC(=O)c1ccccc1CN1CCOCC1`: 2.46; `Cc1cccc(C)c1NC(=O)OCc1cccc(CN2CCOCC2)c1`: 1.85.
